Among the data in US20240425457A1, “COMPOSITIONS AND METHODS FOR SUPPRESSING AND/OR TREATING METABOLIC DISEASES AND/OR A CLINICAL CONDITION THEREOF” (CK Biotech Inc., priority 2018, published 2024) are fasting glucose level values, retold here.

For this assay, the system named is HFD-fed mice. The experiment in a line: HFD-induced obesity/diabetes mice, 5-day oral courses at weeks 8/9 and 12. Conditions: HFD mice; p.o. daily 5 days at weeks 8/9 and 12; A3334, A3051, I3O 25, sitagliptin 50, metformin 100 mg/kg. The format is in vivo. An excerpt: Animals. The generation of Cxxc5^−/− mice has been described previously. Cxxc5 heterozygous mice were intercrossed for four generations to obtain littermate wild-type and Cxxc5^−/− mice and were maintained on a C57BL/6 background. Six-week-old Cxxc5^+/+ and Cxxc5^−/− mice were fed HFD for 8 weeks. Wild-type male C57BL/6 mice (KOATECH, Seoul, Korea) were fed HFD consisting of 60% calories from fat (Research Diet, D12492) for 8 weeks. To validate that the insulin resistance mouse model was successfully established, fasting glucose levels were assessed with a One Touch Ultra glucometer (LifeScan). Subsequently, each HFD-fed mouse with a fasting glucose level higher than 16.7 mmol/L was orally administered A3334 (25 mg kg^−1), sitagliptin (50 mg kg^−1), or metformin (100 mg kg^−1) each day for 5 days at weeks 8 and 12. After the removal of the drugs, mice were maintained for 3 weeks on the HFD. To monitor pancreas regeneration, six-week-old Cxxc5^+/+ and Cxxc5^−/− mice were fed an HFD as above. After dietary treatment for 4 weeks, the mice were intraperitoneally injected with STZ (50 mg/kg/d) for 1 week and the control group were injected with saline. After 2 weeks, Cxxc5^+/+ mice were administered A3334 (25 mg kg^−1) and sitagliptin (50 mg kg^−1) per day by oral gavage for 4 weeks. For GTT or ITT, mice were injected with D-glucose (1.5 g/kg body weight) after overnight starvation or human insulin (0.75 units/kg body weight) after 4 h starvation, respectively. Tail blood was drawn at 0, 15, 30, 60, 120, 180 min intervals and blood glucose level was measured with a One Touch Ultra glucometer. All mice were maintained under temperature-controlled and light-controlled (standard 12 h light/dark cycle) conditions and provided with food and water ad libitum. All protocols were reviewed and approved by the Institutional Review Board of Severance Hospital, Yonsei University College of Medicine (09-013).
Blood chemistry. Total blood of mice was collected by cardiac puncture after fasting. The blood was allowed to clot for 30 min and was then centrifuged for 10 min at 1,000×g to obtain supernatant to measure metabolic parameters. ELISA assay kits were used to assess serum insulin (Millipore), serum FFA (Cayman Chemical), serum adiponectin (ABclonal). The insulin function test was evaluated by HOMA-IR and was calculated as fasting plasma glucose (m mol/l)×fasting serum insulin (mU/l)/22.5. Serum chemistry variables included total cholesterol, HDL-cholesterol, glucose, TG, ALT, AST, ALP, Ca, and Mg concentration. The calibration of serum parameters was performed using the quality control card supplied with the FUJI DRI-CHEM slides whenever slides from a new lot were used. […]
Hematoxylin and eosin (H&E) staining. Dissected tissues were fixed in 4% neutral paraformaldehyde and embedded in paraffin. The paraffin sections were cut at a thickness of 4 μm and subjected to H&E staining. The adipocyte cell size was measured in 20 randomly chosen microscopic areas from 3 independent animals using a Nikon bright-field optical microscope (Nikon TE-2000U). The average adipocyte size was determined using Image J software. […]
Metabolic monitoring and body composition. Metabolic performance (energy intake and energy expenditure) was studied using a PHENOMASTER automated combined indirect calorimetry system (TSE system GmBH). The mice were first acclimated for 24 h in a metabolic chamber and were provided with food and water. They were then subsequently evaluated for 3 days to measure oxygen consumption (VO2), carbon dioxide production (VCO2), ambulatory counts, and respiratory exchange ratio. An LF50 body composition analyzer (Bruker) was used to determine body composition (lean body mass and total body fat) of the mice. The temperature for these studies remained at 22° C., with a 12 h light/dark cycle. Standard in-house software was used for energy expenditure.
Quantitative real-time polymerase chain reaction (PCR). […]

The structures appear in SMILES notation.

As to `CO/N=C1/C(=C2/C(=O)Nc3cc(Cl)c(Cl)cc32)Nc2ccccc21` [Compound A3051, 5,6-dichloroindirubin-3′-methoxime], the fasting glucose level result is “also reduced fasting glucose. However, effects of A3051 and I3O is similar to or little bit weaker than SITA”.
